# Source: US10590140B2, “Tetrahydropyrimidodiazepine and dihydropyridodiazepine compounds for treating pain and pain related conditions” (ESTEVE PHARMACEUTICALS, S.A., priority 2016, dated 2020)
# Where two headings read alike, the source gives them in different places.
# Key:
# [1] = target: human α2δ-1 subunit of Cav2.2 calcium channel (Homo sapiens (Human), UniProt P54289); assay: Binding assay to human α2δ-1 subunit of Cav2.2 calcium channel ([3H]-Gabapentin); settings: read-out: Ki (nM) α2δ-1
# In short: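 [3H]-gabapentin binding, 60 min at 27° C; nonspecific binding defined with 10 μM pregabalin. Terminated by filtration on PEI-presoaked GF/C filters, ice-cold 50 mM Tris-HCl pH 7.4 washes, then scintillation counting.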
# [2] = target: human norepinephrine transporter (NET) (Homo sapiens (Human), UniProt P23975); assay: Binding assay to human norepinephrine transporter (NET) ([3H]-Nisoxetin); settings: Table 2, dual compounds; [3H]-Nisoxetin binding
# Experimental: Binding Assay to Human Norepinephrine Transporter (NET).
# Human norepinephrine transporter (NET) enriched membranes (5 μg) were incubated with 5 nM of radiolabeled [3H]-Nisoxetin in assay buffer containing 50 mM Tris-HCl, 120 mM NaCl, 5 mM KCl, pH 7.4.
# NSB (non specific binding) was measured by adding 1 μM. After 60 min incubation at 4° C., binding reaction was terminated by filtering through Multiscreen GF/C (Millipore) presoaked in 0.5% polyethyleneimine in Vacuum Manifold Station, followed by 3 washes with ice-cold filtration buffer containing 50 mM Tris-HCl, 0.9% NaCl, pH 7.4.
# Filter plates were dried at 60° C. for 1 hour and 30 μl of scintillation cocktail were added to each well before radioactivity reading.
# [3] = Table 2, dual compounds, [3H]-Gabapentin binding
# [4] = binding to α2δ-1, [3H]-Gabapentin
# human norepinephrine transporter (NET), sequence (P23975 whole entry): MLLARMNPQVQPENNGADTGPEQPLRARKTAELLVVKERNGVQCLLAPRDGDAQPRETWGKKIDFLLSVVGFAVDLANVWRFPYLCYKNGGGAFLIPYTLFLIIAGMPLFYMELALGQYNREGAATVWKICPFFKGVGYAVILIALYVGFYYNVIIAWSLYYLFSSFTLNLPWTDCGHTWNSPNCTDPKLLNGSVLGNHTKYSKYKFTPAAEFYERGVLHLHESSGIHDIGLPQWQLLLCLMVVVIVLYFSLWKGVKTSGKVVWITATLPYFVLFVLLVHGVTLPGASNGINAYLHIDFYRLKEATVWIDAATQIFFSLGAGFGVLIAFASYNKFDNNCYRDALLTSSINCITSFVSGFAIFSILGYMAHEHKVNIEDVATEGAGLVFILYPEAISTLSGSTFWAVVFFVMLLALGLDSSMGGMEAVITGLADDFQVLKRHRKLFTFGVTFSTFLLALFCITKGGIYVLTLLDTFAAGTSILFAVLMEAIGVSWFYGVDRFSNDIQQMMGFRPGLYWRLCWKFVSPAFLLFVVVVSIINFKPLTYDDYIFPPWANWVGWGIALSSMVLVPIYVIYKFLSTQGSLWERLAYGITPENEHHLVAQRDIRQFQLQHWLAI
# human α2δ-1 subunit of Cav2.2 calcium channel, sequence (P54289 25-1103): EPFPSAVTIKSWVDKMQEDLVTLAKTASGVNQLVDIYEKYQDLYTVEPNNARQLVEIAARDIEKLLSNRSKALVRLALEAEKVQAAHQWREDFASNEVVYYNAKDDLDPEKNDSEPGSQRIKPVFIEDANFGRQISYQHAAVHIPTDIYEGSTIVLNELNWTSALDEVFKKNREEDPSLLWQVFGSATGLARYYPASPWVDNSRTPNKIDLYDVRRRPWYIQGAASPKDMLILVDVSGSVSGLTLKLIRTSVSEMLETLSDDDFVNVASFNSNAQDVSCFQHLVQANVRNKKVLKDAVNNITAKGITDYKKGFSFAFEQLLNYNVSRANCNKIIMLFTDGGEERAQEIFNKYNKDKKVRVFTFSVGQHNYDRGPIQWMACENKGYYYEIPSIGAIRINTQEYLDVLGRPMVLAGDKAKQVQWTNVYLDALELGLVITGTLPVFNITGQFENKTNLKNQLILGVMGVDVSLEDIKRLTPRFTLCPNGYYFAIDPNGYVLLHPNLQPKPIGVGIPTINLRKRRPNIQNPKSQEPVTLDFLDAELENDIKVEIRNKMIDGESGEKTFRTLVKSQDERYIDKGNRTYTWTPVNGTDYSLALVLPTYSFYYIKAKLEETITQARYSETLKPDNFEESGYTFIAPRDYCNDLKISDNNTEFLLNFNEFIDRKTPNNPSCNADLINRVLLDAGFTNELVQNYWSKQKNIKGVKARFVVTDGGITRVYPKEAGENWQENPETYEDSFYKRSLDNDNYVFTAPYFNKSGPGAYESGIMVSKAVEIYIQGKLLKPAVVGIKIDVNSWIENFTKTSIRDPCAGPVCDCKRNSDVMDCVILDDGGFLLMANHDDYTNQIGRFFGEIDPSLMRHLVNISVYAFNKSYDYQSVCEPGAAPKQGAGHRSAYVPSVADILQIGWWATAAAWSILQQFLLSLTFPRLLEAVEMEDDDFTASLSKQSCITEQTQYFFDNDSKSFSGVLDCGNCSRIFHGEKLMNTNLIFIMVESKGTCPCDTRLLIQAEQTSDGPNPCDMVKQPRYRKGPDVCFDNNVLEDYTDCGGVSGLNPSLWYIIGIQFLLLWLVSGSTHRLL
"Ki [1, 3] [nM]","Ki [1, 4] [nM]",Ki [2] [nM],Structure (SMILES)
500 to 3000,500 to 3000,100 to 500,"CCNc1cc2c(cn1)C(=O)N(c1cccc(OC(CCNC)c3ccccc3)c1)CCN2C (stereo not drawn) [Example 198, 8-(ethylamino)-1-methyl-4-(3-(3-(methylamino)-1-phenylpropoxy)phenyl)-1,2,3,4-tetrahydro-5H-pyrido[4,3-e][1,4]diazepin-5-one]"
> 3000,> 3000,> 1000,"CSc1ncc2c(n1)N(C)CCN(c1cccc(COC3(c4ccccc4)CCNCC3)c1)C2=O [Example 179, 9-methyl-2-(methylthio)-6-(3-(((4-phenylpiperidin-4-yl)oxy)methyl)phenyl)-6,7,8,9-tetrahydro-5H-pyrimido[4,5-e][1,4]diazepin-5-one]"
500 to 3000,500 to 3000,< 100,"CNCCC(Oc1ccc(CN2CCN(C)c3ncncc3C2=O)cc1)c1ccccc1 (stereo not drawn) [Example 430, 9-methyl-6-(4-(3-(methylamino)-1-phenylpropoxy)benzyl)-6,7,8,9-tetrahydro-5H-pyrimido[4,5-e][1,4]diazepin-5-one]"
500 to 3000,500 to 3000,100 to 500,"CCNc1ncc2c(n1)N(C)CCN(c1cccc(-n3cc(CN(C)CCc4ccccc4)cn3)c1)C2=O [Example 252, 2-(ethylamino)-9-methyl-6-(3-(4-((methyl(phenethyl)amino)methyl)-1H-pyrazol-1-yl)phenyl)-6,7,8,9-tetrahydro-5H-pyrimido[4,5-e][1,4]diazepin-5-one]"
500 to 3000,500 to 3000,100 to 500,"CNCCC(OCc1cccc(N2CCN(C)c3nc(C(F)(F)F)ncc3C2=O)c1)c1cccs1 (stereo not drawn) [Example 330, 9-methyl-6-(3-((3-(methylamino)-1-(thiophen-2-yl)propoxy)methyl)phenyl)-2-(trifluoromethyl)-6,7,8,9-tetrahydro-5H-pyrimido[4,5-e][1,4]diazepin-5-one]"
500 to 3000,500 to 3000,100 to 500,"CNCCC(OCc1cccc(N2CCN(C)c3nc(SC)ncc3C2=O)c1)c1ccccc1 (stereo not drawn) [Example 163, 9-methyl-6-(3-((3-(methylamino)-1-phenylpropoxy)methyl)phenyl)-2-(methylthio)-6,7,8,9-tetrahydro-5H-pyrimido[4,5-e][1,4]diazepin-5-one]"
100 to 500,100 to 500,100 to 500,"CNCC[C@H](Oc1ccc(CN2CCN(C)c3ccncc3C2=O)cc1)c1cccs1 [Example 382, (S)-1-methyl-4-(4-(3-(methylamino)-1-(thiophen-2-yl)propoxy)benzyl)-1,2,3,4-tetrahydro-5H-pyrido[4,3-e][1,4]diazepin-5-one]"
500 to 3000,500 to 3000,100 to 500,"CCc1ncc2c(n1)N(C)CCN(c1cccc(CO[C@H](CCNC)c3ccccc3)c1)C2=O [Example 356, (R)-2-ethyl-9-methyl-6-(3-((3-(methylamino)-1-phenylpropoxy)methyl)phenyl)-6,7,8,9-tetrahydro-5H-pyrimido[4,5-e][1,4]diazepin-5-one]"
> 3000,> 3000,100 to 500,"CNCCC(OCc1cccc(N2CCN(C)c3nc(C(F)(F)F)ncc3C2=O)c1)c1ccccc1 (stereo not drawn) [Example 322, 9-methyl-6-(3-((3-(methylamino)-1-phenylpropoxy)methyl)phenyl)-2-(trifluoromethyl)-6,7,8,9-tetrahydro-5H-pyrimido[4,5-e][1,4]diazepin-5-one]"
> 3000,> 3000,< 100,"CNCCC(Oc1ccc(CN2CCN(C)c3nc(OC)ncc3C2=O)cc1)c1sccc1C (stereo not drawn) [Example 388, 2-methoxy-9-methyl-6-(4-(3-(methylamino)-1-(3-methylthiophen-2-yl)propoxy)benzyl)-6,7,8,9-tetrahydro-5H-pyrimido[4,5-e][1,4]diazepin-5-one]"
> 3000,> 3000,100 to 500,"CCNc1ncc2c(n1)N(C)CCN(Cc1ccc(COC(CCNC)c3ccccc3)cc1)C2=O (stereo not drawn) [Example 405, 2-(ethylamino)-9-methyl-6-(4-((3-(methylamino)-1-phenylpropoxy)methyl)benzyl)-6,7,8,9-tetrahydro-5H-pyrimido[4,5-e][1,4]diazepin-5-one]"
100 to 500,100 to 500,100 to 500,"CNCC[C@@H](OCc1cccc(N2CCN(C)c3nc(SC)ncc3C2=O)c1)c1cccs1 [Example 209, (R)-9-methyl-6-(3-((3-(methylamino)-1-(thiophen-2-yl)propoxy)methyl)phenyl)-2-(methylthio)-6,7,8,9-tetrahydro-5H-pyrimido[4,5-e][1,4]diazepin-5-one]"
500 to 3000,500 to 3000,< 100,"CCNc1ncc2c(n1)N(C)CCN(Cc1ccc(O[C@@H](CCNC)c3ccccc3)cc1)C2=O [Example 414, (S)-2-(ethylamino)-9-methyl-6-(4-(3-(methylamino)-1-phenylpropoxy)benzyl)-6,7,8,9-tetrahydro-5H-pyrimido[4,5-e][1,4]diazepin-5-one]"
500 to 3000,500 to 3000,< 100,"CCNc1ncc2c(n1)N(C)CCN(c1cccc(-n3cc(CN(C)Cc4ccc(F)cc4)nn3)c1)C2=O [Example 287, 2-(ethylamino)-6-(3-(4-(((4-fluorobenzyl)(methyl)amino)methyl)-1H-1,2,3-triazol-1-yl)phenyl)-9-methyl-6,7,8,9-tetrahydro-5H-pyrimido[4,5-e][1,4]diazepin-5-one]"
> 3000,> 3000,500 to 1000,"CCNc1ncc2c(n1)N(C)CCN(c1cccc(OC(CN(C)C)c3ccccc3)c1)C2=O (stereo not drawn) [Example 239, 6-(3-(2-(dimethylamino)-1-phenylethoxy)phenyl)-2-(ethylamino)-9-methyl-6,7,8,9-tetrahydro-5H-pyrimido[4,5-e][1,4]diazepin-5-one]"
100 to 500,100 to 500,100 to 500,"CCNc1ncc2c(n1)N(C)CCN(c1cccc(OCCN(C)Cc3ccccc3)c1)C2=O [Example 264, 6-(3-(2-(benzyl(methyl)amino)ethoxy)phenyl)-2-(ethylamino)-9-methyl-6,7,8,9-tetrahydro-5H-pyrimido[4,5-e][1,4]diazepin-5-one]"
500 to 3000,500 to 3000,100 to 500,"CNCC[C@@H](Oc1cccc(N2CCN(C)c3nc(SC)ncc3C2=O)c1)c1ccccc1 [Example 152, (R)-9-methyl-6-(3-(3-(methylamino)-1-phenylpropoxy)phenyl)-2-(methylthio)-6,7,8,9-tetrahydro-5H-pyrimido[4,5-e][1,4]diazepin-5-one]"
500 to 3000,500 to 3000,> 1000,"CCNc1ncc2c(n1)N(C)CCN(c1cccc(OC(CCNC)c3ccccn3)c1)C2=O (stereo not drawn) [Example 193, 2-(ethylamino)-9-methyl-6-(3-(3-(methylamino)-1-(pyridin-2-yl)propoxy)phenyl)-6,7,8,9-tetrahydro-5H-pyrimido[4,5-e][1,4]diazepin-5-one]"
500 to 3000,500 to 3000,< 100,"CNCC[C@H](Oc1ccc(CN2CCN(C)c3ncncc3C2=O)cc1)c1ccccc1 [Example 433, (S)-9-methyl-6-(4-(3-(methylamino)-1-phenylpropoxy)benzyl)-6,7,8,9-tetrahydro-5H-pyrimido[4,5-e][1,4]diazepin-5-one]"
500 to 3000,> 3000,500 to 1000,"CCNc1ncc2c(n1)N(C)CCN(c1cccc(COCC(NC)c3ccccc3)c1)C2=O (stereo not drawn) [Example 166, 2-(ethylamino)-9-methyl-6-(3-((2-(methylamino)-2-phenylethoxy)methyl)phenyl)-6,7,8,9-tetrahydro-5H-pyrimido[4,5-e][1,4]diazepin-5-one]"
100 to 500,100 to 500,100 to 500,"CNCCC(Oc1cccc(N2CCN(C)c3cc(C)ncc3C2=O)c1)c1cccs1 (stereo not drawn) [Example 307, 1,8-dimethyl-4-(3-(3-(methylamino)-1-(thiophen-2-yl)propoxy)phenyl)-1,2,3,4-tetrahydro-5H-pyrido[4,3-e][1,4]diazepin-5-one]"
500 to 3000,500 to 3000,< 100,"CCNc1ncc2c(n1)N(C)CCN(c1cccc(-n3cc(CN(C)Cc4ccccc4)nn3)c1)C2=O [Example 243, 6-(3-(4-((benzyl(methyl)amino)methyl)-1H-1,2,3-triazol-1-yl)phenyl)-2-(ethylamino)-9-methyl-6,7,8,9-tetrahydro-5H-pyrimido[4,5-e][1,4]diazepin-5-one]"
100 to 500,100 to 500,100 to 500,"CCNc1ncc2c(n1)N(C)CCN(c1cccc(-n3cc(CN(C)CC4CC4)nn3)c1)C2=O [Example 246, 6-(3-(4-(((cyclopropylmethyl)(methyl)amino)methyl)-1H-1,2,3-triazol-1-yl)phenyl)-2-(ethylamino)-9-methyl-6,7,8,9-tetrahydro-5H-pyrimido[4,5-e][1,4]diazepin-5-one]"
500 to 3000,500 to 3000,500 to 1000,"CNCCC(OCc1cccc(N2CCN(C)c3nc(SC)ncc3C2=O)c1)c1cccs1 (stereo not drawn) [Example 208, 9-Methyl-6-(3-((3-(methylamino)-1-(thiophen-2-yl)propoxy)methyl)phenyl)-2-(methylthio)-6,7,8,9-tetrahydro-5H-pyrimido[4,5-e][1,4]diazepin-5-one]"
